Our source for the Ki values is BindingDB's records for doi:10.1074/jbc.271.44.27217 (Yamanouchi Pharmaceutical, 1996).

This experiment concerns the target T1, Neuropeptide Y receptor type 2 (Oryctolagus cuniculus, UniProt B6VRS5).
T1 sequence (B6VRS5 whole entry): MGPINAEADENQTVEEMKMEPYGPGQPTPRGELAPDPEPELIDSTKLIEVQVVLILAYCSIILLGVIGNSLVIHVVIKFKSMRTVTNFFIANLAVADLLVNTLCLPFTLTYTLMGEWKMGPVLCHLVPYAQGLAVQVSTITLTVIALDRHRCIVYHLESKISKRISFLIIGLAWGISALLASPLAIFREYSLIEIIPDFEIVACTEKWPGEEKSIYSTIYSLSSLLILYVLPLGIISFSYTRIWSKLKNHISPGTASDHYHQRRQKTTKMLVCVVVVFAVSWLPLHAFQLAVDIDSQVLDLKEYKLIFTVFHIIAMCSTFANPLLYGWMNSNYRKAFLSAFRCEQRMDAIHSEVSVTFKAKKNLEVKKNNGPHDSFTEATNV

As for `CC[C@H](C)[C@H](NC(=O)[C@H](Cc1ccc(O)cc1)NC(=O)[C@H](CCCNC(=N)N)NC(=O)[C@H](CCCNC(=N)N)NC(=O)[C@H](CC(C)C)NC(=O)[C@H](CC(=O)O)NC(=O)[C@H](C)NC(=O)[C@H](C)NC(=O)[C@H](Cc1ccc(O)cc1)NC(=O)[C@H](CCC(N)=O)NC(=O)[C@H](C)NC(=O)[C@H](CCSC)NC(=O)[C@H](CCC(N)=O)NC(=O)[C@H](CCC(=O)O)NC(=O)[C@@H]1CCCN1C(=O)[C@@H](NC(=O)[C@H](C)NC(=O)[C@H](CC(N)=O)NC(=O)[C@H](CC(=O)O)NC(=O)CNC(=O)[C@@H]1CCCN1C(=O)[C@H](Cc1ccc(O)cc1)NC(=O)[C@@H](NC(=O)[C@@H]1CCCN1C(=O)[C@H](CCC(=O)O)NC(=O)[C@H](CC(C)C)NC(=O)[C@@H]1CCCN1C(=O)[C@H](C)N)C(C)C)[C@@H](C)O)C(=O)N[C@@H](CC(N)=O)C(=O)N[C@@H](CCSC)C(=O)N[C@@H](CC(C)C)C(=O)N[C@H](C(=O)N[C@@H](CCCNC(=N)N)C(=O)N1CCC[C@H]1C(=O)N[C@@H](CCCNC(=N)N)C(=O)N[C@@H](Cc1ccc(O)cc1)C(N)=O)[C@@H](C)O` [CAS_59763-91-6], the Ki was found to be 340 nM.
